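Five concentrations, 48 hours, 96-well plates. Here, GI50 denotes the concentration required for 50% inhibition of growth.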 Active and inactive are the calls of the source. Rule as the data show it: active = GI50 up to about 1.1 µM and inactive = higher.
Legend:
Assay in all cases: NCI anticancer screen, dose series, 48 h
786-0 = system: 786-0
HCC 2998 = system: HCC 2998
HL-60 = system: HL-60
HT-29 = system: HT-29
IGROV-1 = system: IGROV-1
KM12 = system: KM12
M14 = system: M14
MDA-N = system: MDA-N
NCI-H460 = system: NCI-H460
PC-3 = system: PC-3
SF-295 = system: SF-295
SK-MEL-2 = system: SK-MEL-2
SK-MEL-5 = system: SK-MEL-5
SNB-19 = system: SNB-19
SR = system: SR
TK-10 = system: TK-10
UACC-257 = system: UACC-257
UACC-62 = system: UACC-62
HOP-92 = system: HOP-92
RXF 393 = system: RXF 393

| Structure (SMILES) | GI50 (786-0) | GI50 (HCC 2998) | GI50 (HL-60) | GI50 (HT-29) | GI50 (IGROV-1) | GI50 (KM12) | GI50 (M14) | GI50 (MDA-N) | GI50 (NCI-H460) | GI50 (PC-3) | GI50 (SF-295) | GI50 (SK-MEL-2) | GI50 (SK-MEL-5) | GI50 (SNB-19) | GI50 (SR) | GI50 (TK-10) | GI50 (UACC-257) | GI50 (UACC-62) | GI50 (HOP-92) | GI50 (RXF 393) |
| --- | --- | --- | --- | --- | --- | --- | --- | --- | --- | --- | --- | --- | --- | --- | --- | --- | --- | --- | --- | --- |
| C/N=C1\OC2=C3C(c4ccccc4)(O/C(=N/C)N(C)C3(c3ccccc3)OC2=O)N1C (stereo unspecified) | > 100 µM (inactive) | > 100 µM (inactive) | > 100 µM (inactive) | > 100 µM (inactive) | > 100 µM (inactive) | > 100 µM (inactive) | > 100 µM (inactive) | > 100 µM (inactive) | > 100 µM (inactive) | > 100 µM (inactive) | > 100 µM (inactive) | 23.7 µM (inactive) | > 100 µM (inactive) | > 100 µM (inactive) | > 100 µM (inactive) | > 100 µM (inactive) | > 100 µM (inactive) | > 100 µM (inactive) | – | – |
| O=C(O)CSCc1cccc2ccccc12 | > 100 µM (inactive) | – | > 100 µM (inactive) | > 100 µM (inactive) | > 100 µM (inactive) | > 100 µM (inactive) | > 100 µM (inactive) | > 100 µM (inactive) | > 100 µM (inactive) | > 100 µM (inactive) | > 100 µM (inactive) | > 100 µM (inactive) | > 100 µM (inactive) | > 100 µM (inactive) | > 100 µM (inactive) | 48.8 µM (inactive) | 62.1 µM (inactive) | > 100 µM (inactive) | > 100 µM (inactive) | > 100 µM (inactive) |
| C=C1CC(C)(COc2ccc3c(C)c(Cl)c(=O)oc3c2)OC1=O (stereo unspecified) | 1.35 µM (inactive) | 1.81 µM (inactive) | 0.12 µM (active) | 0.984 µM (active) | 1.76 µM (inactive) | 3.65 µM (inactive) | 1.26 µM (inactive) | 0.762 µM (active) | 6.97 µM (inactive) | 2.52 µM (inactive) | 6.12 µM (inactive) | 1.44 µM (inactive) | 1.43 µM (inactive) | 12.9 µM (inactive) | 0.865 µM (active) | 0.942 µM (active) | 1.15 µM (inactive) | 1.39 µM (inactive) | 1.06 µM (active) | – |
| COc1cc(C2c3cc4c(cc3OC(C)(O)C2C)OCO4)cc(OC)c1OC (stereo unspecified) | 0.708 µM (active) | 0.646 µM (active) | 0.182 µM (active) | 0.344 µM (active) | 0.625 µM (active) | 0.697 µM (active) | – | 0.0555 µM (active) | 0.406 µM (active) | 0.306 µM (active) | 0.304 µM (active) | – | 0.154 µM (active) | 0.342 µM (active) | 0.379 µM (active) | – | 65.2 µM (inactive) | – | – | 0.211 µM (active) |
| Oc1ccc(Cl)cc1-c1nc(S)nc(-c2ccccc2)c1Cl | 34.7 µM (inactive) | – | > 100 µM (inactive) | > 31.6 µM (inactive) | 72.4 µM (inactive) | > 100 µM (inactive) | > 100 µM (inactive) | > 100 µM (inactive) | > 100 µM (inactive) | > 100 µM (inactive) | 28.6 µM (inactive) | 69.8 µM (inactive) | > 61.7 µM (inactive) | 69.2 µM (inactive) | > 100 µM (inactive) | 49.1 µM (inactive) | > 100 µM (inactive) | > 10 µM (inactive) | 69.8 µM (inactive) | 45 µM (inactive) |
| COc1ccc(OC)c2sc(N3C(=O)/C(=C/Cc4ccco4)N=C3c3ccccc3)nc12 | 35.5 µM (inactive) | > 100 µM (inactive) | 18.1 µM (inactive) | 44 µM (inactive) | 30.6 µM (inactive) | 38.8 µM (inactive) | 37.6 µM (inactive) | 19.6 µM (inactive) | 50.1 µM (inactive) | 24.5 µM (inactive) | 73.1 µM (inactive) | 24.1 µM (inactive) | 21.2 µM (inactive) | 47.3 µM (inactive) | 19.4 µM (inactive) | > 100 µM (inactive) | > 100 µM (inactive) | 21.8 µM (inactive) | 35.8 µM (inactive) | – |
| C=C(C)C(=O)O[C@H]1C/C(CO)=C/CCC(=C)C(OC(C)=O)[C@H]2OC(=O)C(=C)[C@H]12 (stereo partly specified) | 3.79 µM (inactive) | 12.5 µM (inactive) | 3.09 µM (inactive) | 5.86 µM (inactive) | 17.5 µM (inactive) | 14.7 µM (inactive) | 3.49 µM (inactive) | 4.49 µM (inactive) | 17.1 µM (inactive) | 14.6 µM (inactive) | 23.7 µM (inactive) | 7.18 µM (inactive) | 14.7 µM (inactive) | 28.7 µM (inactive) | 3.51 µM (inactive) | > 10 µM (inactive) | 10 µM (inactive) | 10.2 µM (inactive) | – | – |
| COC(=O)c1ccc(NCC2=CC(=O)C=CC2=O)cc1O | 15.7 µM (inactive) | – | – | 19.6 µM (inactive) | 17.3 µM (inactive) | – | 20.9 µM (inactive) | 16.4 µM (inactive) | 21 µM (inactive) | 31.8 µM (inactive) | 17.7 µM (inactive) | 44.2 µM (inactive) | 24.4 µM (inactive) | 19.7 µM (inactive) | > 100 µM (inactive) | 14.4 µM (inactive) | 16.2 µM (inactive) | 15.7 µM (inactive) | 2.92 µM (inactive) | 19.9 µM (inactive) |
| CCN(CC(O)COc1ccc2c(c1)[n+]([O-])nc(N)[n+]2[O-])C(C)=O (stereo unspecified) | > 100 µM (inactive) | – | > 100 µM (inactive) | > 100 µM (inactive) | > 100 µM (inactive) | > 100 µM (inactive) | > 100 µM (inactive) | > 100 µM (inactive) | > 100 µM (inactive) | > 100 µM (inactive) | > 100 µM (inactive) | > 100 µM (inactive) | 79.1 µM (inactive) | > 100 µM (inactive) | > 100 µM (inactive) | > 100 µM (inactive) | > 100 µM (inactive) | 49.7 µM (inactive) | – | – |
| O=C1NC2(CCCCC2)C(=O)N1CCN(CCCl)CCCl [SPIROMUSTINE] | > 25 µM (inactive) | > 230 µM (inactive) | 41.9 µM (inactive) | > 250 µM (inactive) | > 250 µM (inactive) | 199 µM (inactive) | > 25 µM (inactive) | > 25 µM (inactive) | 61.5 µM (inactive) | > 25 µM (inactive) | – | > 141 µM (inactive) | > 241 µM (inactive) | 187 µM (inactive) | 19.4 µM (inactive) | > 25 µM (inactive) | 218 µM (inactive) | 77.6 µM (inactive) | – | – |
| Nc1ncnc2c1ncn2[C@@H]1C[C@H]1CO | > 100 µM (inactive) | > 100 µM (inactive) | > 100 µM (inactive) | > 100 µM (inactive) | – | > 100 µM (inactive) | > 100 µM (inactive) | > 100 µM (inactive) | > 100 µM (inactive) | > 100 µM (inactive) | > 100 µM (inactive) | > 100 µM (inactive) | – | > 100 µM (inactive) | > 100 µM (inactive) | – | > 100 µM (inactive) | – | – | – |
| COC(=O)c1ccccc1C#CC#Cc1ccccc1C(=O)OC | > 10 µM (inactive) | > 10 µM (inactive) | 4.76 µM (inactive) | 6.4 µM (inactive) | > 10 µM (inactive) | 3.19 µM (inactive) | > 10 µM (inactive) | > 10 µM (inactive) | > 10 µM (inactive) | 9.06 µM (inactive) | > 10 µM (inactive) | > 10 µM (inactive) | > 10 µM (inactive) | > 10 µM (inactive) | > 10 µM (inactive) | > 10 µM (inactive) | > 10 µM (inactive) | > 10 µM (inactive) | – | > 10 µM (inactive) |
| O=C1/C(=C/c2cc3c(=O)c4ccccc4sc3s2)NC(=S)N1c1ccccc1 | 23.7 µM (inactive) | > 100 µM (inactive) | 12.2 µM (inactive) | > 100 µM (inactive) | > 100 µM (inactive) | > 100 µM (inactive) | – | > 100 µM (inactive) | > 100 µM (inactive) | > 100 µM (inactive) | 66.4 µM (inactive) | 78.7 µM (inactive) | 91.2 µM (inactive) | 24 µM (inactive) | 12.8 µM (inactive) | > 100 µM (inactive) | > 100 µM (inactive) | > 100 µM (inactive) | – | 15.4 µM (inactive) |
| O=C1NC(Cc2c[nH]c3ccccc23)C(=O)N2C(c3ccccc3)c3[nH]c4ccccc4c3C[C@@H]12 (stereo partly specified) | 16.2 µM (inactive) | – | 20.5 µM (inactive) | 22.1 µM (inactive) | 22.2 µM (inactive) | 19.3 µM (inactive) | 21.6 µM (inactive) | 17.6 µM (inactive) | – | 18.7 µM (inactive) | 15.3 µM (inactive) | 23.8 µM (inactive) | 17.5 µM (inactive) | 34.1 µM (inactive) | 12.8 µM (inactive) | 26.9 µM (inactive) | 25.4 µM (inactive) | 17.2 µM (inactive) | 25.1 µM (inactive) | 16 µM (inactive) |
| Cc1cc(O)c2c(c1)C(=O)C=C(Br)C2=O | 17.5 µM (inactive) | > 43.7 µM (inactive) | 0.724 µM (active) | 21.1 µM (inactive) | > 43.7 µM (inactive) | 27.2 µM (inactive) | 15.8 µM (inactive) | 15.3 µM (inactive) | 19.9 µM (inactive) | 17.8 µM (inactive) | 36 µM (inactive) | 17.1 µM (inactive) | 14.4 µM (inactive) | > 65.8 µM (inactive) | 1.3 µM (inactive) | 16.4 µM (inactive) | 13.1 µM (inactive) | 16.6 µM (inactive) | 13.8 µM (inactive) | – |
